Measurements reported in patent US20070104778A1, “Controlled-release emulsion compositions” (priority 2005, published 2007).
Converted amounts (≈) assume the structure as drawn. Where two headings read alike, the source gives them in different places.

Key:
[1] = Solubility of clozapine in different pH medium; assay type: physicochemical
[2] = Solubility of clozapine in organic acid and Vitamin E-TPGS + organic acid combination
[3] = Solubility of clozapine in solvent; assay type: physicochemical; conditions: organic solvent or mixture

## CN1CCN(C2=Nc3cc(Cl)ccc3Nc3ccccc32)CC1 [Clozapine, clozapine]
[1]; DI water, water
  solubility: 11.8 µg/mL (≈ 36.1 µM)
[1]; low pH regions
  Solubility (pH dependent behavior): fairly good solubility
[1]; pH 1.5 medium, pH 1.5, simulated gastric fluid
  solubility: 712 µg/mL (≈ 2180 µM)
[1]; pH 7.5 medium, pH 7.5, aqueous buffer
  solubility: 30.7 µg/mL (≈ 93.9 µM)
[1]; pH beyond 5
  Solubility (pH dependent behavior): low solubility
[2]; Alginic acid 1% w/v, aqueous buffer
  solubility: 9.99 µg/mL
[2]; Ascorbic acid 1% w/v, aqueous buffer
  solubility: 259 µg/mL
[2]; Citric acid (0.1M), aqueous buffer
  solubility: 35400 µg/mL
[2]; Fumaric acid (0.01M), aqueous buffer
  solubility: 8880 µg/mL
[2]; Oleinic acid 1% w/v, aqueous with cosolvent or surfactant or cyclodextrin
  solubility: 9.86 µg/mL
[2]; Stearic acid 1% w/v
  Solubility of Clozapine in Organic Acid: Form conjugated compound
[2]; Succinic acid (0.05M), aqueous buffer
  solubility: 25700 µg/mL
[3]; 2-pyrrolidinone (Soluphor-P)
  solubility: > 250000 µg/mL
[3]; N-methyl-2-pyrrolidinone (NMP)
  solubility: > 300000 µg/mL
Bile extract 1% w/v surfactant solution, aqueous with cosolvent or surfactant or cyclodextrin
  solubility: 941 µg/mL (≈ 2880 µM)
Brij 700 1% w/v surfactant solution, aqueous with cosolvent or surfactant or cyclodextrin
  solubility: 336 µg/mL (≈ 1030 µM)
Cremphor A25 1% w/v surfactant solution, aqueous with cosolvent or surfactant or cyclodextrin
  solubility: 506 µg/mL (≈ 1550 µM)
Cremphor A-6 1% w/v surfactant solution, aqueous with cosolvent or surfactant or cyclodextrin
  solubility: 11.5 µg/mL (≈ 35.2 µM)
Cremphor RH 40 1% w/v surfactant solution, aqueous with cosolvent or surfactant or cyclodextrin
  solubility: 115 µg/mL (≈ 351 µM)
Labrasol 1% w/v surfactant solution, aqueous with cosolvent or surfactant or cyclodextrin
  solubility: 70.6 µg/mL (≈ 216 µM)
Lutrol F-68 1% w/v surfactant solution, aqueous with cosolvent or surfactant or cyclodextrin
  solubility: 15.3 µg/mL (≈ 46.8 µM)
PEG 400 1% w/v surfactant solution
  solubility: 30.9 µg/mL (≈ 94.6 µM)
PEG 600 1% w/v surfactant solution
  solubility: 29.7 µg/mL (≈ 90.8 µM)
PEG distearate 1% w/v surfactant solution, aqueous with cosolvent or surfactant or cyclodextrin
  solubility: 952 µg/mL (≈ 2910 µM)
PEG-diolaurate 1% w/v surfactant solution, aqueous with cosolvent or surfactant or cyclodextrin
  solubility: 104 µg/mL (≈ 320 µM)
PEG-monolaurate 1% w/v surfactant solution, aqueous with cosolvent or surfactant or cyclodextrin
  solubility: 372 µg/mL (≈ 1140 µM)
Sodium Dodecylate Sulfate (SDS) 1% w/v surfactant solution, aqueous with cosolvent or surfactant or cyclodextrin
  solubility: 1140 µg/mL (≈ 3480 µM)
Sodium desoxycholate 1% w/v surfactant solution, aqueous with cosolvent or surfactant or cyclodextrin
  solubility: 342 µg/mL (≈ 1050 µM)
Solutol HS15 1% w/v surfactant solution, aqueous with cosolvent or surfactant or cyclodextrin
  solubility: 344 µg/mL (≈ 1050 µM)
Span 20 1% w/v surfactant solution, aqueous with cosolvent or surfactant or cyclodextrin
  solubility: 16.1 µg/mL (≈ 49.4 µM)
Tween 20 1% w/v surfactant solution, aqueous with cosolvent or surfactant or cyclodextrin
  solubility: 158 µg/mL (≈ 485 µM)
Tween 80 1% w/v surfactant solution, aqueous with cosolvent or surfactant or cyclodextrin
  solubility: 399 µg/mL (≈ 1220 µM)
